Among the data in patent US6673781B1, “Tricyclic compounds having sPLA2-inhibitory activities” (Shionogi & Co., Ltd., priority 1999, dated 2004) are IC50 and melting point values, retold here.

For data set [1], the target named is T1, recombinant human secretory phospholipase A2 (Homo sapiens, UniProt P14555).
T1 sequence (P14555 21-144): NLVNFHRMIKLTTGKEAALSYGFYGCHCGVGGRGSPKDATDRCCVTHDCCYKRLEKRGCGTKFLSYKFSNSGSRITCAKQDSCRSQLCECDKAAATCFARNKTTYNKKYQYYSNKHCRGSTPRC
In words: Inhibition test of human secretory phospholipase A2 (chromogenic assay, 96 well microtiterplate). It counts as biochemical. As to conditions: sPLA2 50 ng/well, 40° C., 30 minutes, OD 405 nm, substrate 1,2-bis(heptanoylthio)-1,2-dideoxy-sn-glycero-3-phospholylcholine. The source says:
Inhibition Test of Human Secretory Phospholipase A2 Analytical Experiment
In order to identify and evaluate an inhibitor of recombinant human secretory phospholipase A2, the following chromogenic assay is utilized. The assay herein has been applied for high volume screening wherein 96 well microtiterplate is used. A general explanation for such assay is described in “Analysis of Human Synovial Fluid Phospholipase A2 on Short Chain Phosphatidylcholine-Mixed Micelles: Development of a Spectrophotometric Assay Suitable for a Micortiterplate Reader” (Analytical Biochemistry, 204, pp 190-197, 1992 by Laure. J. Reynolds. Lori L. Hughes and Edward A. Dennis: the disclosure of which is incorporated herein for reference.
Bovine Serum Albumin (fatty acid free) (1 g/L) (Sigma A-7030)
pH 7.5 (adjusted with NaOH)
pH 4.5 (adjusted with acetic acid)
1 mg of sPLA2 is dissolved in 1 ml of an enzyme buffer. Thereafter, the solution is maintained at 4° C.
In the assay, 5 μl of the solution is diluted with 1995 μl of the reaction buffer to be used.
198 mg of 5,5′-dithiobis-2-[…] (manufactured by Wako Pure Chemicals) is dissolved in 100 ml of H2O
100 mg of racemic 1,2-bis(heptanoylthio)-1,2-dideoxy-sn-glycero-3-phospholylcholine is dissolved in 1 ml of chloroform.
624.9 mg of Triton-X 100 is dissolved in 100 ml of the reaction buffer.
Enzyme Reaction: for 1 plate of Microtiterplate
1) 0.106 ml of the substrate solution is put in a centrifugal tube, and nitrogen gas is jetted to remove the solvent. 0.54 ml of Triton-X 100 is added thereto, the mixture is stirred, thereafter it is sonified in a bath type sonification to dissolve. To the resulting product are added 17.8 ml of the reaction buffer and 0.46 ml of DTNB, and 0.18 ml each of the admixture is poured to wells of the 96 well microtiterplate.
2) 10 μl of a test compound (or solvent blank) are added in accordance with alignment of plates which has been previously set.
3) Incubation is effected at 40° C. for 15 minutes.
4) 20 μl of an enzyme solution (sPLA2) which has been previously diluted (50 ng/well) are added to start reaction (40° C., 30 minutes).
5) Changes in absorbancy for 30 minutes are measured by a plate reader, and inhibition activity was calculated (OD: 405 nm).
6) IC50 was determined by plotting log concentration with respect to inhibition values within 10% to 90% inhibiting range.

Take `NC(=O)C1=CCCc2c1c1c(OCC(=O)O)cccn1c2Cc1ccccc1` [Compound I-2]: the IC50 (usually the concentration needed to halve the response being measured) in data set [1] was 0.008 µM.

With `NC(=O)C1CCCc2c1c1c(OCC(=O)O)cccn1c2Cc1ccccc1` (stereo not drawn) [Compound I-3], in data set [1], the IC50 was determined as 0.021 µM.

With `CCOC(=O)CCCOc1ccn2c(Cc3ccccc3)c3c(c2c1)C(C(N)=O)=CCC3` [Compound I-4], in data set [1], the concentration for half-maximal inhibition (IC50) is 0.175 µM.

For the compound `NC(=O)C1=CCCc2c1c1cc(OCCCC(=O)O)ccn1c2Cc1ccccc1` [Compound I-5], the IC50 in data set [1] is 0.049 µM.

Turning to `COC(=O)COc1cccn2c(Cc3ccccc3)c3c(c12)C(C(N)=O)OCCC3` (stereo not drawn) [Compound I-6], the melting point (commonly the temperature, or range, at which the solid turns liquid) was 182 to 183 °C. The IC50 in data set [1] was 7.5 µM.

`NC(=O)C1OCCCc2c1c1c(OCC(=O)O)cccn1c2Cc1ccccc1` (stereo not drawn) [Compound I-7]: the melting point fell in the range of 175 to 179 °C. For the same compound, the IC50 in data set [1] came to 0.269 µM.

On to `COC(=O)COc1cccn2c(Cc3ccccc3)c3c(c12)C(C(N)=O)=NCC3` [Compound I-8], for which the half-maximal inhibitory concentration (IC50) in data set [1] stood at 21.1 µM.

In the case of `NC(=O)C1=NCCc2c1c1c(OCC(=O)O)cccn1c2Cc1ccccc1` [Compound I-9], the melting point lay within 196 to 198 °C. For the same compound, the half-maximal inhibitory concentration (IC50) in data set [1] turned out to be 1.59 µM.

For the compound `NC(=O)c1nncc2c(Cc3ccccc3)n3cccc(OCC(=O)O)c3c12` [Compound I-10], the concentration for half-maximal inhibition (IC50) in data set [1] was 39.9 µM.

Consider `NC(=O)C1=NOCc2c1c1c(OCC(=O)O)cccn1c2Cc1ccccc1` [Compound I-11], for which the IC50 in data set [1] was determined as 0.031 µM.

Consider `COC(=O)COc1cccn2c(Cc3ccc(-c4ccccc4)cc3)c3c(c12)C(C(N)=O)=CCC3` [Compound I-12], for which the melting point was in the range of 196 to 198 °C. Moreover, in data set [1], the IC50 worked out at 0.125 µM.

In the case of `NC(=O)C1=CCCc2c1c1c(OCC(=O)O)cccn1c2Cc1ccc(-c2ccccc2)cc1` [Compound I-13], the melting point lay within 224 to 227 °C. Moreover, the concentration for half-maximal inhibition (IC50) in data set [1] was 0.01 µM.

Consider `COC(=O)COc1cccn2c(Cc3ccccc3)c3c(c12)C(C(N)=O)OCC3` (stereo not drawn) [Compound I-14], for which the melting point lay within 218 to 220 °C. In addition, the 50% inhibitory concentration (IC50) in data set [1] turned out to be 0.725 µM.

Regarding `NC(=O)C1OCCc2c1c1c(OCC(=O)O)cccn1c2Cc1ccccc1` (stereo not drawn) [Compound I-15], the melting point is 242 to 243 °C (dec.). Moreover, in data set [1], the 50% inhibitory concentration (IC50) stood at 0.035 µM.
